# Results published in US6737383B1, “Herbicidal oxadiazolidines” (priority 1999, dated 2004).
# Key:
# duck salad = experiment: Test B flood test duck salad; assay type: in vivo, Heteranthera limosa
# Method in brief: (§1)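 Read-out is a visual response score from 0 (no effect) to 10 (complete control), assigned by comparison with untreated controls. Treatment was applied at the 2-leaf stage, and plants stayed in the greenhouse for twelve to sixteen days before scoring.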
# corn = experiment: Test B pre/postemergence corn; assay type: in vivo, Zea mays
# Method in brief: (§2)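 Herbicidal effect was estimated by eye on a ten-point control scale after plants spent twelve to sixteen days in a greenhouse following soil or foliar treatment. Foliar sprays targeted plants at one to four leaves; all doses were formulated in a non-phytotoxic solvent with surfactant.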
# wild oat = experiment: Test B pre/postemergence wild oat; assay type: in vivo, Avena fatua
# Method in brief: as §2
# pigweed = experiment: Test B pre/postemergence pigweed; assay type: in vivo, Amaranthus retroflexus
# Method in brief: as §2
# purple nutsedge = experiment: Test B pre/postemergence purple nutsedge; assay type: in vivo, Cyperus rotundus
# Method in brief: as §2
# sugar beet = experiment: Test B pre/postemergence sugar beet; assay type: in vivo, Beta vulgaris
# Method in brief: as §2
# rice = experiment: Test B flood test rice; assay type: in vivo, Oryza sativa
# Method in brief: as §1
# crabgrass = experiment: Test B pre/postemergence crabgrass; assay type: in vivo, Digitaria sanguinalis
# Method in brief: as §2
# soybean = experiment: Test B pre/postemergence soybean; assay type: in vivo, Glycine max
# Method in brief: as §2
# giant foxtail = experiment: Test B pre/postemergence giant foxtail; assay type: in vivo, Setaria faberii
# Method in brief: as §2
# surinam grass = experiment: Test B pre/postemergence surinam grass; assay type: in vivo, Brachiaria decumbens
# Method in brief: as §2
# blackgrass = experiment: Test B pre/postemergence blackgrass; assay type: in vivo, Alopecurus myosuroides
# Method in brief: as §2
# cocklebur = experiment: Test B pre/postemergence cocklebur; assay type: in vivo, Xanthium strumarium
# Method in brief: as §2
# wheat = experiment: Test B pre/postemergence wheat; assay type: in vivo, Triticum aestivum
# Method in brief: as §2
# velvetleaf = experiment: Test B pre/postemergence velvetleaf; assay type: in vivo, Abutilon theophrasti
# Method in brief: as §2
# bedstraw = experiment: Test B pre/postemergence bedstraw; assay type: in vivo, Galium aparine
# Method in brief: as §2
# [1] = Rate 62 g/ha, headed Pre-emergence (flood test species), scale 0 to 10 (0 no effect, 10 complete control)
# [2] = Rate 125 g/ha, Pre-emergence, flood test species, scale 0 to 10 where 0 is no effect and 10 is complete control
# [3] = Rate 250 g/ha, Pre-emergence, flood-test species, scale 0 to 10, 0 is no effect, 10 is complete control
# [4] = Rate 500 g/ha, Pre-emergence, flood test species, scale 0 to 10 (0 no effect, 10 complete control)
# [5] = Preemergence, Rate 62 g/ha, scale of 0 to 10 where 0 is no effect and 10 is complete control
# [6] = Preemergence, Rate 250 g/ha, scale of 0 to 10 where 0 is no effect and 10 is complete control
# [7] = Preemergence, Rate 500 g/ha, scale of 0 to 10 where 0 is no effect and 10 is complete control
# [8] = Rate 62 g/ha, Postemergence, scale 0 to 10, 0 no effect, 10 complete control
# [9] = Rate 125 g/ha, Postemergence, scale of 0 to 10 where 0 is no effect and 10 is complete control
# [10] = Rate 250 g/ha, Postemergence, scale of 0 to 10 where 0 is no effect and 10 is complete control
# [11] = Rate 500 g/ha, Postemergence, scale 0 to 10, 0 no effect, 10 complete control
smiles,measurement,setting,value
CC(C)N(C(=O)n1oc(=O)n(C2CC2)c1=O)c1ccc(F)cc1F [Compound 299],Ducksalad plant response rating,duck salad; [1],0
same,Ducksalad plant response rating,duck salad; [2],0
same,Ducksalad plant response rating,duck salad; [3],0
same,Ducksalad plant response rating,duck salad; [4],0
same,Corn plant response rating,corn; [5],0
same,Corn plant response rating (0 to 10 scale),"corn; Preemergence, Rate 125 g/ha",0
same,Corn plant response rating,corn; [6],8
same,Corn plant response rating,corn; [7],8
same,Corn plant response rating,corn; [8],0
same,Corn plant response rating,corn; [9],0
same,"Plant response rating, Corn",corn; [10],3
same,Corn plant response rating,corn; [11],4
same,Wild oats plant response rating,wild oat; [5],2
same,Wild oats plant response rating (0 to 10 scale),"wild oat; Preemergence, Rate 125 g/ha",7
same,Wild oats plant response rating,wild oat; [6],8
same,Wild oats plant response rating,wild oat; [7],8
same,Wild oats plant response rating,wild oat; [8],0
same,Wild oats plant response rating,wild oat; [9],0
same,"Plant response rating, Wild oats",wild oat; [10],3
same,Redroot pigweed plant response rating,pigweed; [5],9
same,Redroot pigweed plant response rating (0 to 10 scale),"pigweed; Preemergence, Rate 125 g/ha",10
same,Redroot pigweed plant response rating,pigweed; [6],10
same,Redroot pigweed plant response rating,pigweed; [7],10
same,Redroot pigweed plant response rating,pigweed; [8],2
same,Redroot pigweed plant response rating,pigweed; [9],3
same,"Plant response rating, Redroot pigweed",pigweed; [10],6
same,Nutsedge plant response rating,purple nutsedge; [5],0
same,Nutsedge plant response rating (0 to 10 scale),"purple nutsedge; Preemergence, Rate 125 g/ha",0
same,Nutsedge plant response rating,purple nutsedge; [8],0
same,Nutsedge plant response rating,purple nutsedge; [9],0
same,"Plant response rating, Nutsedge",purple nutsedge; [10],0
same,Sugarbeets plant response rating,sugar beet; [5],3
same,Sugarbeets plant response rating (0 to 10 scale),"sugar beet; Preemergence, Rate 125 g/ha",8
same,Sugarbeets plant response rating,sugar beet; [6],9
same,Sugarbeets plant response rating,sugar beet; [7],10
same,Sugarbeets plant response rating,sugar beet; [8],2
same,Sugarbeets plant response rating,sugar beet; [9],3
same,"Plant response rating, Sugarbeets",sugar beet; [10],4
same,Rice plant response rating,rice; [1],0
same,Rice plant response rating,rice; [2],0
same,Rice plant response rating,rice; [3],0
same,Rice plant response rating,rice; [4],0
same,Crabgrass plant response rating,crabgrass; [5],6
same,Crabgrass plant response rating (0 to 10 scale),"crabgrass; Preemergence, Rate 125 g/ha",9
same,Crabgrass plant response rating,crabgrass; [6],9
same,Crabgrass plant response rating,crabgrass; [7],9
same,Crabgrass plant response rating,crabgrass; [8],0
same,Crabgrass plant response rating,crabgrass; [9],3
same,"Plant response rating, Crabgrass",crabgrass; [10],4
same,Soybean plant response rating,soybean; [5],0
same,Soybean plant response rating (0 to 10 scale),"soybean; Preemergence, Rate 125 g/ha",0
same,Soybean plant response rating,soybean; [6],6
same,Soybean plant response rating,soybean; [7],7
same,Soybean plant response rating,soybean; [9],6
same,"Plant response rating, Soybean",soybean; [10],6
same,Giant foxtail plant response rating,giant foxtail; [5],9
same,Giant foxtail plant response rating (0 to 10 scale),"giant foxtail; Preemergence, Rate 125 g/ha",10
same,Giant foxtail plant response rating,giant foxtail; [6],10
same,Giant foxtail plant response rating,giant foxtail; [7],10
same,Giant foxtail plant response rating,giant foxtail; [8],7
same,Giant foxtail plant response rating,giant foxtail; [9],7
same,"Plant response rating, Giant foxtail",giant foxtail; [10],8
same,B. signalgrass plant response rating,surinam grass; [5],6
same,"B. signalgrass plant response rating (0 to 10 scale, 0 is no effect, 10 is complete control)","surinam grass; Preemergence, Rate 125 g/ha",9
same,B. signalgrass plant response rating,surinam grass; [6],9
same,B. signalgrass plant response rating,surinam grass; [7],10
same,B. signalgrass plant response rating,surinam grass; [8],0
same,B. signalgrass plant response rating,surinam grass; [9],3
same,"Plant response rating, B. signalgrass",surinam grass; [10],7
same,B. signalgrass plant response rating,surinam grass; [11],8
same,Blackgrass plant response rating,blackgrass; [5],9
same,Blackgrass plant response rating (0 to 10 scale),"blackgrass; Preemergence, Rate 125 g/ha",10
same,Blackgrass plant response rating,blackgrass; [6],10
same,Blackgrass plant response rating,blackgrass; [7],10
same,Blackgrass plant response rating,blackgrass; [8],7
same,Blackgrass plant response rating,blackgrass; [9],8
same,"Plant response rating, Blackgrass",blackgrass; [10],8
same,Blackgrass plant response rating,blackgrass; [11],9
same,Cocklebur plant response rating,cocklebur; [5],0
same,Cocklebur plant response rating (0 to 10 scale),"cocklebur; Preemergence, Rate 125 g/ha",0
same,Cocklebur plant response rating,cocklebur; [6],0
same,Cocklebur plant response rating,cocklebur; [7],0
same,Cocklebur plant response rating,cocklebur; [8],0
same,Cocklebur plant response rating,cocklebur; [9],2
same,"Plant response rating, Cocklebur",cocklebur; [10],4
same,Cocklebur plant response rating,cocklebur; [11],5
same,Wheat plant response rating,wheat; [5],3
same,Wheat plant response rating (0 to 10 scale),"wheat; Preemergence, Rate 125 g/ha",7
same,Wheat plant response rating,wheat; [6],8
same,Wheat plant response rating,wheat; [7],8
same,Wheat plant response rating,wheat; [8],0
same,Wheat plant response rating,wheat; [9],3
same,"Plant response rating, Wheat",wheat; [10],6
same,Velvetleaf plant response rating,velvetleaf; [5],6
same,Velvetleaf plant response rating (0 to 10 scale),"velvetleaf; Preemergence, Rate 125 g/ha",7
same,Velvetleaf plant response rating,velvetleaf; [6],8
same,Velvetleaf plant response rating,velvetleaf; [7],8
same,Velvetleaf plant response rating,velvetleaf; [8],0
same,Velvetleaf plant response rating,velvetleaf; [9],0
same,"Plant response rating, Velvetleaf",velvetleaf; [10],6
same,Bedstraw plant response rating,bedstraw; [5],10
same,Bedstraw plant response rating (0 to 10 scale),"bedstraw; Preemergence, Rate 125 g/ha",10
same,Bedstraw plant response rating,bedstraw; [6],10
same,Bedstraw plant response rating,bedstraw; [7],10
same,Bedstraw plant response rating,bedstraw; [8],2
same,Bedstraw plant response rating,bedstraw; [9],7
